Key:
[1] = test system: 60 human tumor cell lines; assay: NCI screening of antitumor activity in vitro in 60 human tumor cell lines; type: cell-based
Excerpt: The experimental results refer to FIGS. 1-12.

[2] = test system: 10 human tumor cell lines; assay: Antitumor activity screening in 10 human tumor cell lines; type: cell-based
Excerpt: In the invention, the compounds, MTC-301, MTC-302, MTC-303, MTC-304, MTC-305, MTC-306, MTC-307, MDC-308, MDC-403, MDC-404, MDC-405. MDC-406, MDC-407 and MDC-408 were screened their antitumor activity in 10 human tumor cell lines. […] The experimental results refer to FIGS. 13-16.

SMILES	50% growth inhibition (GI50) activity [1]	50% growth inhibition (GI50) activity [2]
CC(=O)O[C@@]12CO[C@@H]1C[C@H](O)[C@@]1(C)C(=O)[C@H](O)C3=C(C)[C@@H](OC(=O)[C@H](OC(=O)CCC(=O)NCCCCC(NC(=O)CC[C@H](NC(=O)C(C)NC(=O)/C=C/c4ccc(Cl)cc4)C(N)=O)C(N)=O)[C@@H](NC(=O)OC(C)(C)C)c4ccccc4)C[C@@](O)([C@@H](OC(=O)c4ccccc4)[C@H]21)C3(C)C (stereo partly drawn) [MDC-400]	in the same magnitude range as paclitaxel	–
CC(=O)O[C@H]1C(=O)[C@@]2(C)[C@H]([C@H](OC(=O)c3ccccc3)[C@]3(O)C[C@H](OC(=O)[C@H](OC(=O)CCC(=O)NCCCCC(NC(=O)CC[C@H](NC(=O)C(C)NC(=O)c4ccc5ccccc5n4)C(N)=O)C(N)=O)[C@@H](NC(=O)c4ccccc4)c4ccccc4)C(C)=C1C3(C)C)[C@]1(OC(C)=O)CO[C@@H]1C[C@@H]2O (stereo partly drawn) [MTC-213]	in the same magnitude range as paclitaxel	–
CC(=O)O[C@H]1C(=O)[C@@]2(C)[C@H]([C@H](OC(=O)c3ccccc3)[C@]3(O)C[C@H](OC(=O)[C@H](OC(=O)CCC(=O)NCCCCC(NC(=O)CC[C@H](NC(=O)C(C)NC(=O)/C=C/c4cccs4)C(N)=O)C(N)=O)[C@@H](NC(=O)c4ccccc4)c4ccccc4)C(C)=C1C3(C)C)[C@]1(OC(C)=O)CO[C@@H]1C[C@@H]2O (stereo partly drawn) [MTC-219]	in the same magnitude range as paclitaxel	–
CC(=O)O[C@H]1C(=O)[C@@]2(C)[C@H]([C@H](OC(=O)c3ccccc3)[C@]3(O)C[C@H](OC(=O)[C@H](OC(=O)CCC(=O)NCCCCC(NC(=O)CC[C@H](NC(=O)C(C)NC(=O)COc4cccc5ccccc45)C(N)=O)C(N)=O)[C@@H](NC(=O)c4ccccc4)c4ccccc4)C(C)=C1C3(C)C)[C@]1(OC(C)=O)CO[C@@H]1C[C@@H]2O (stereo partly drawn) [MTC-233]	in the same magnitude range as paclitaxel	–
CC(=O)O[C@H]1C(=O)[C@@]2(C)[C@H]([C@H](OC(=O)c3ccccc3)[C@]3(O)C[C@H](OC(=O)[C@H](OC(=O)CCC(=O)NCCCCC(NC(=O)CC[C@H](NC(=O)C(C)NC(=O)/C=C/c4ccc(Cl)cc4F)C(N)=O)C(N)=O)[C@@H](NC(=O)c4ccccc4)c4ccccc4)C(C)=C1C3(C)C)[C@]1(OC(C)=O)CO[C@@H]1C[C@@H]2O (stereo partly drawn) [MTC-304]	–	in the same magnitude range as paclitaxel or docetaxel
CC(=O)O[C@H]1C(=O)[C@@]2(C)[C@H]([C@H](OC(=O)c3ccccc3)[C@]3(O)C[C@H](OC(=O)[C@H](OC(=O)CCC(=O)NCCCCC(NC(=O)CC[C@H](NC(=O)C(C)NC(=O)/C=C/c4ccc(F)cc4Cl)C(N)=O)C(N)=O)[C@@H](NC(=O)c4ccccc4)c4ccccc4)C(C)=C1C3(C)C)[C@]1(OC(C)=O)CO[C@@H]1C[C@@H]2O (stereo partly drawn) [MTC-305]	–	in the same magnitude range as paclitaxel or docetaxel
CC(=O)O[C@H]1C(=O)[C@@]2(C)[C@H]([C@H](OC(=O)c3ccccc3)[C@]3(O)C[C@H](OC(=O)[C@H](OC(=O)CCC(=O)NCCCCC(NC(=O)CC[C@H](NC(=O)C(C)NC(=O)/C=C/c4ccc(F)cc4)C(N)=O)C(N)=O)[C@@H](NC(=O)c4ccccc4)c4ccccc4)C(C)=C1C3(C)C)[C@]1(OC(C)=O)CO[C@@H]1C[C@@H]2O (stereo partly drawn) [MTC-306]	–	in the same magnitude range as paclitaxel or docetaxel
CC(=O)O[C@H]1C(=O)[C@@]2(C)[C@H]([C@H](OC(=O)c3ccccc3)[C@]3(O)C[C@H](OC(=O)[C@H](OC(=O)CCC(=O)NCCCCC(NC(=O)CC[C@H](NC(=O)C(C)NC(=O)/C=C/c4cccc(F)c4)C(N)=O)C(N)=O)[C@@H](NC(=O)c4ccccc4)c4ccccc4)C(C)=C1C3(C)C)[C@]1(OC(C)=O)CO[C@@H]1C[C@@H]2O (stereo partly drawn) [MTC-307]	–	in the same magnitude range as paclitaxel or docetaxel
CC(=O)O[C@H]1C(=O)[C@@]2(C)[C@H]([C@H](OC(=O)c3ccccc3)[C@]3(O)C[C@H](OC(=O)[C@H](OC(=O)CCC(=O)NCCCCC(NC(=O)CC[C@H](NC(=O)C(C)NC(=O)/C=C/c4ccc(F)c(F)c4)C(N)=O)C(N)=O)[C@@H](NC(=O)c4ccccc4)c4ccccc4)C(C)=C1C3(C)C)[C@]1(OC(C)=O)CO[C@@H]1C[C@@H]2O (stereo partly drawn) [MTC-308]	–	in the same magnitude range as paclitaxel or docetaxel

Reference: patent publication US9085605B2, “Chemical synthesis and anti-tumor and anti-metastatic effects of dual functional conjugate” (Shenzhen Salubris Pharmaceuticals Co., Ltd., priority 2010, dated 2015)
